The text below walks through data of PMC4476725 (PLoS Pathogens, 2015).

Read-outs that look alike come from different tables or passages of the source.

One series addresses RSV RNP complex (Human respiratory syncytial virus A, UniProt P28887). The series is described as follows: biochemical. To be noted: for inhibition of RSV RNP complex (in words): Fig 5B; for IC50: read-out: RSV polymerase inhibition class (IC50, RSV RNP complex). In kind it is biochemical.
Series [1] deals with RSV polymerase QUAD mutant (Human respiratory syncytial virus A, UniProt P28887, A789V/I796V/L795I/M628L). Kind of series: Single nucleotide incorporation by recombinant RSV L-P polymerase, QUAD mutant. In kind it is biochemical. To be noted: for Km: primer extension from the +3 position, n = 2.
RSV polymerase QUAD mutant, sequence (P28887 whole entry A789V/I796V/L795I/M628L, looked up): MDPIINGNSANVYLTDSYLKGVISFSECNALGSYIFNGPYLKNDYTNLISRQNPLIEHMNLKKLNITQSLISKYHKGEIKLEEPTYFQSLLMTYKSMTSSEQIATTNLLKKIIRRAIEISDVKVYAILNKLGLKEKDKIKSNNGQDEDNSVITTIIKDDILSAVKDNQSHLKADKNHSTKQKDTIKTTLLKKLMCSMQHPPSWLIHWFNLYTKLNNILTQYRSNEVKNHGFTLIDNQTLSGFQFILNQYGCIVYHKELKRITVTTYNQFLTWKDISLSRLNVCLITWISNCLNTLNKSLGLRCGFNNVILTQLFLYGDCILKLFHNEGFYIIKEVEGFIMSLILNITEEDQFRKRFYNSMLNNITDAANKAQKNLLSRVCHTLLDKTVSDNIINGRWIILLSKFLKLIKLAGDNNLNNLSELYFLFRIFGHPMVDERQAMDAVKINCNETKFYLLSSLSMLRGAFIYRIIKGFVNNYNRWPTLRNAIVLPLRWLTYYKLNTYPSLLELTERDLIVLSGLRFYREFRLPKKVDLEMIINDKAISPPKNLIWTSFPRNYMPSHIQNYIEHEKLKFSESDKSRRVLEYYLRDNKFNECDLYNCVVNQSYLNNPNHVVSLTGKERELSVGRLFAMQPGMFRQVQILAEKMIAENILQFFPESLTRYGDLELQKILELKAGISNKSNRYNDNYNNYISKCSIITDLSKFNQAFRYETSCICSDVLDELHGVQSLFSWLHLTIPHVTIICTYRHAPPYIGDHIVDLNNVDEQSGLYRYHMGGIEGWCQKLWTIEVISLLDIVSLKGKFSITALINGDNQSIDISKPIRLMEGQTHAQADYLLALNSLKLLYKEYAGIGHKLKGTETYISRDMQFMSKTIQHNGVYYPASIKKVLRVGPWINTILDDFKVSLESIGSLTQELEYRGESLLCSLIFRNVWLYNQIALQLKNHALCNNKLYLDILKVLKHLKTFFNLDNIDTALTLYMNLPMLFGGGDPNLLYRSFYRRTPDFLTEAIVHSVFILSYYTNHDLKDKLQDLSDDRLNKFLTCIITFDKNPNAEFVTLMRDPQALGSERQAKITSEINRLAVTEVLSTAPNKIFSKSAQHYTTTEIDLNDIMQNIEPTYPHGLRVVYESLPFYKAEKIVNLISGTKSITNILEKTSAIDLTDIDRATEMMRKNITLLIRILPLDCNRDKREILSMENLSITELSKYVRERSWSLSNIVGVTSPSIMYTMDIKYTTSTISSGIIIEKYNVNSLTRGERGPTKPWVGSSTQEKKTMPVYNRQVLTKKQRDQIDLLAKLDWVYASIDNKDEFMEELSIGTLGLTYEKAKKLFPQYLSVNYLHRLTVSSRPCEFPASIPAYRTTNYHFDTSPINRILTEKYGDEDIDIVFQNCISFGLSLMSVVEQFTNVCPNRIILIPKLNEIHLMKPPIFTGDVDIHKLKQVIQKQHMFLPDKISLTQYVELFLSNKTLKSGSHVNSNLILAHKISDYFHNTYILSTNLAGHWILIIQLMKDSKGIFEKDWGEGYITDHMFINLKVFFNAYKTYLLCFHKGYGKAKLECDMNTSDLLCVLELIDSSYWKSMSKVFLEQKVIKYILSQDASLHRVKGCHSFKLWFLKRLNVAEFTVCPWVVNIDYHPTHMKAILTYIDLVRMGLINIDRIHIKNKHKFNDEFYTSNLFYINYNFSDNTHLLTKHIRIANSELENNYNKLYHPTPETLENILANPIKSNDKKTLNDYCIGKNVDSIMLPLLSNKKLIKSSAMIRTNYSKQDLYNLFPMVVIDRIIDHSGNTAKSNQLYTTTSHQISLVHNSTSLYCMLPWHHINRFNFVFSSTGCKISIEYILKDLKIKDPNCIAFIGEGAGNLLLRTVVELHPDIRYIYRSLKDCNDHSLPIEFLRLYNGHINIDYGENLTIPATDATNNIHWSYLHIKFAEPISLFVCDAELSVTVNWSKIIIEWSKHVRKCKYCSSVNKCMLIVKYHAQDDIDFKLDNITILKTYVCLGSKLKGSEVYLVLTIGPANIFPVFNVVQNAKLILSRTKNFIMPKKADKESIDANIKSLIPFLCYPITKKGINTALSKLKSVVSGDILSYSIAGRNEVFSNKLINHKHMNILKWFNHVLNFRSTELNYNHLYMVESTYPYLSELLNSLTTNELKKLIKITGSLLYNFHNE
For another series, the target named is HCV polymerase (Hepatitis C virus genotype 1b, UniProt Q9WMX2). Kind of series: HCV polymerase inhibition assay. To be noted: for IC50: read-out: HCV polymerase inhibition class (IC50). In kind it is biochemical.
Series [2] has as its target T1, wild-type RSV L-P RNA polymerase complex (Human respiratory syncytial virus A, UniProt P28887).
T1 construct: made in house; host or cells: insect cells
In kind it is biochemical. The settings on record: for discrimination relative to natural CTP, WT RSV polymerase: Km CTP analog / Km CTP; for Km: primer extension from the +3 position, read-out: Km, single nucleotide incorporation, WT RSV L-P.

For series [3], the target named is human mitochondrial RNA polymerase (Homo sapiens, UniProt O00411). Kind of series: DdRp assay with human mitochondrial RNA polymerase, single turnover. In kind it is biochemical.
For a further series, the system named is RSV replicon. Kind of series: RSV subgenomic replicon assay (luciferase). In kind it is cell-based, Respiratory syncytial virus. On the procedure: The RSV subgenomic replicon (Apath, Brooklyn, NY, USA) was used as previously described. The HeLa-derived cells containing the stable RSV replicon were cultured in DMEM containing 4500 mg/L D-glucose, L-glutamine, and 110 mg/L sodium pyruvate. The medium was further supplemented with 10% (v/v) FBS (Mediatech), 1% (v/v) penicillin/streptomycin (Mediatech), and 10 μg/mL of Blasticidin (BSD) (Invivogen). Cells were maintained at 37°C in a humidified 5% CO2 atmosphere. On the first day, 5000 RSV replicon cells per well were plated in a 96-well plate. On the following day, compounds to be tested were solubilized in 100% DMSO to 100 × the desired final testing concentration. Cells were incubated with compounds for 7 days at 37°C in a 5% CO2 atmosphere before measurement of the luciferase readout. Cell viability (CC50) was measured with a CellTiter-Glo cell proliferation assay (Promega).

For another series, the system named is RSV A2. Kind of series: African Green monkey efficacy model. In kind it is in vivo, African Green monkeys (Chlorocebus sabaeus). To be noted: oral BID, 200 mg/kg loading then 50 mg/kg, 6 days.
On the set-up of series [4]: method as in PMID 25667954. The settings on record: cited from earlier work.

T1 sequence (P28887 whole entry): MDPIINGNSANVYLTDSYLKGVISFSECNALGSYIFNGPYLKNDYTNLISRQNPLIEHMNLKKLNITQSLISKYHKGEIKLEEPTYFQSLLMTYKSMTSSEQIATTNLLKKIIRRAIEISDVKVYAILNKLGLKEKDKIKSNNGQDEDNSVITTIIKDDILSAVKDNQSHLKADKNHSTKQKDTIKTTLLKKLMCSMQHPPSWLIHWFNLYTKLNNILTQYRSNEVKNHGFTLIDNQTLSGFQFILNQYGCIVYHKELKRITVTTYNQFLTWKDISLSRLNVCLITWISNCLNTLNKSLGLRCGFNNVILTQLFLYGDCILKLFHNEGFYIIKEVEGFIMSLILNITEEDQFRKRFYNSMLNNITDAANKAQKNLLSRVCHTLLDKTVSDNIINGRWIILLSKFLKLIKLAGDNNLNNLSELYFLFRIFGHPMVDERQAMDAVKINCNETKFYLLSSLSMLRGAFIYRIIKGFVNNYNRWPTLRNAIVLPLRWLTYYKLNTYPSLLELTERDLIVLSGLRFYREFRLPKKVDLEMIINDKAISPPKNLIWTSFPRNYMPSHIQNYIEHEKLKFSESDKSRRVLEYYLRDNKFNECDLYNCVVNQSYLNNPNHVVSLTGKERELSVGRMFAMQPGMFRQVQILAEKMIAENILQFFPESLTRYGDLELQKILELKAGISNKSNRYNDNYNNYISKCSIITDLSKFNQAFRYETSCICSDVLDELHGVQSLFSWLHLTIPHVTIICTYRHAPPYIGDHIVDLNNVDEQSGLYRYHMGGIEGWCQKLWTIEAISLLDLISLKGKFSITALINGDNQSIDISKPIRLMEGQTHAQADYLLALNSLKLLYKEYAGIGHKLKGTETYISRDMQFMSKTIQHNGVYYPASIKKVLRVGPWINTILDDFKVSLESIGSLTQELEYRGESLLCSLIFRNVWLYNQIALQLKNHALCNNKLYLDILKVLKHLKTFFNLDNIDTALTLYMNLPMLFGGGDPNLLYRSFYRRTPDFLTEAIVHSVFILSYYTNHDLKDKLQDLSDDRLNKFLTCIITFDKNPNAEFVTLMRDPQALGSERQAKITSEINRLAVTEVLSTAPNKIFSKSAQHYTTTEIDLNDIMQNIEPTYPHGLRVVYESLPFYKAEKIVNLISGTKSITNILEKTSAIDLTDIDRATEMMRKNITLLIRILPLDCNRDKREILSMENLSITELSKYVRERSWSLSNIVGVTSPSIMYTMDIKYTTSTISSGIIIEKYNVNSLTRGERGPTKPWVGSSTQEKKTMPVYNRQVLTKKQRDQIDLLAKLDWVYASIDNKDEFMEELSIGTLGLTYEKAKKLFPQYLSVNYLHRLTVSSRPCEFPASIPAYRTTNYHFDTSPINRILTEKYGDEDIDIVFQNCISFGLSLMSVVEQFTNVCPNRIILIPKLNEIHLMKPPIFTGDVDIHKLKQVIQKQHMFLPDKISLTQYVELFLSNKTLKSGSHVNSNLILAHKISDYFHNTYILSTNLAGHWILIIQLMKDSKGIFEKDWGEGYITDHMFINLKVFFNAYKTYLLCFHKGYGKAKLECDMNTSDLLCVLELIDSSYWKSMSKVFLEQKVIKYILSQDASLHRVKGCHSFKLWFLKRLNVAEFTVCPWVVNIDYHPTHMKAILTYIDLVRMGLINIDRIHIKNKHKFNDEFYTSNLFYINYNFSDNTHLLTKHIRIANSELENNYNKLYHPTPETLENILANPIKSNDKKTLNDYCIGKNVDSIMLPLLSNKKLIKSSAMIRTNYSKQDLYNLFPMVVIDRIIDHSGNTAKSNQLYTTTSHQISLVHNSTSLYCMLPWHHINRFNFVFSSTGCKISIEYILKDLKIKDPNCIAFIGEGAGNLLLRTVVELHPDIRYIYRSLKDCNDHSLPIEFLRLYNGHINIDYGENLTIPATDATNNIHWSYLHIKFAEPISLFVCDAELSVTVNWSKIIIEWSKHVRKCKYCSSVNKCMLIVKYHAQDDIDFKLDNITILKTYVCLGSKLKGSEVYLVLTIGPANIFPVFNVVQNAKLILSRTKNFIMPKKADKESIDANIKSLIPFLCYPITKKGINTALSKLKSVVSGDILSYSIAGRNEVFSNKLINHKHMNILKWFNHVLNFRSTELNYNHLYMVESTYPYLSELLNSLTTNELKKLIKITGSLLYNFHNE
T1 sequence (P03421 whole entry, further chain): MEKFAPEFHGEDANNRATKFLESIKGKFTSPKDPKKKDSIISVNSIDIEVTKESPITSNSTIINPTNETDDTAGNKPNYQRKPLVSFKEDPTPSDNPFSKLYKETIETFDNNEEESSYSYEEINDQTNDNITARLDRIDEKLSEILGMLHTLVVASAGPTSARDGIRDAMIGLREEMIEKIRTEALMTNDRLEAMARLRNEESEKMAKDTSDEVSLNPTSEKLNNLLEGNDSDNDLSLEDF

Take 4'ClCH2-CTP: the “inhibition of RSV RNP complex (in words)” value on RSV RNP complex was “dual RSV/HCV polymerase inhibitors”. The IC50 at RSV RNP complex (first symbol of RSV / HCV) and on HCV polymerase (second symbol of RSV / HCV) was 0.1 to 10 µM each time. The values for the Km in series [1] and in series [2] were 198 ± 18 µM and 16 ± 2.7 µM, respectively. Besides, the “increase in discrimination, QUAD vs WT (resistance level)” value in series [1] (recombinant L-P enzymes) turned out to be 24 fold. Further, the “inhibition of HCV polymerase (in words)” value against HCV polymerase (Fig 5B) was “dual RSV/HCV polymerase inhibitors”. Moreover, the “substrate and chain termination profile with recombinant RSV polymerase (in words)” value (“substrate and chain termination profile” for short) in series [2] (Fig 5A) was “less efficiently recognized”. Further, in series [2], the “discrimination relative to natural CTP, WT RSV polymerase” value is recorded as 288±48 fold.

As for `[N-]=[N+]=N[C@]1(COP(=O)(O)OP(=O)(O)OP(=O)(O)O)O[C@@H](n2ccc(N)nc2=O)[C@H](F)[C@@H]1O` [2'F-4'N3-CTP], the “inhibition of RSV RNP complex (in words)” value against RSV RNP complex is “dual RSV/HCV polymerase inhibitors”. For the same compound, the IC50 at RSV RNP complex (first symbol of RSV / HCV) and on HCV polymerase (second symbol of RSV / HCV) was 0.1 to 10 µM throughout. In addition, on HCV polymerase (Fig 5B), the “inhibition of HCV polymerase (in words)” value is reported as “dual RSV/HCV polymerase inhibitors”. In series [2] (Fig 5A), the “substrate and chain termination profile” value is “both substrates and chain terminators”.

As for `Nc1ccn([C@@H]2O[C@H](COP(=O)(O)OP(=O)(O)OP(=O)(O)O)[C@@H](O)[C@H]2F)c(=O)n1` [2'F-CTP], the “recognition as substrate by human mitochondrial RNA polymerase (in words)” value in series [3] is reported as “recognized as a substrate”. Further, the “inhibition of HCV polymerase (in words)” value on HCV polymerase is “did not efficiently inhibit”.

Turning to `Nc1ccn([C@@H]2O[C@](CCl)(COP(=O)(O)OP(=O)(O)OP(=O)(O)O)[C@@H](O)C2(F)F)c(=O)n1` [2'diF-4'ClCH2-CTP], the IC50 at RSV RNP complex (first symbol of RSV / HCV) and on HCV polymerase (second symbol of RSV / HCV) was greater than 10 µM in each case. In addition, the “substrate and chain termination profile” value in series [2] was “almost completely inactive”.

Consider `[N-]=[N+]=NC1(COP(=O)(O)OP(=O)(O)OP(=O)(O)O)OC(n2ccc(N)nc2=O)C(F)(F)C1O` (stereo not shown) [2'diF-4'N3-CTP], for which the “inhibition of RSV RNP complex (in words)” value at RSV RNP complex was “dual RSV/HCV polymerase inhibitors”. For the same compound, the IC50 on RSV RNP complex (first symbol of RSV / HCV) and at HCV polymerase (second symbol of RSV / HCV) was 0.1 to 10 µM in each case. Further, the “inhibition of HCV polymerase (in words)” value at HCV polymerase (Fig 5B) is “dual RSV/HCV polymerase inhibitors”. Besides, in series [2], the “substrate and chain termination profile” value was “both substrates and chain terminators”.

With `Nc1ccn([C@@H]2O[C@H](COP(=O)(O)OP(=O)(O)OP(=O)(O)O)[C@@H](O)C2(F)F)c(=O)n1` [2'diF-CTP, reference compound], the “inhibition of RSV RNP complex (in words)” value on RSV RNP complex is reported as “did not efficiently inhibit”. Moreover, the values for the IC50 at RSV RNP complex (first symbol of RSV / HCV) and at HCV polymerase (second symbol of RSV / HCV) were greater than 10 µM and 0.1 to 10 µM, respectively. The “inhibition of HCV polymerase (in words)” value against HCV polymerase (Fig 5B) is given as “did not efficiently inhibit”. Further, in series [2], the “substrate and chain termination profile” value is “substrates for RSV polymerase, but did not cause immediate chain termination”.

Turning to `[N-]=[N+]=N[C@]1(COP(=O)(O)OP(=O)(O)OP(=O)(O)O)O[C@@H](n2ccc(N)nc2=O)[C@H](O)[C@@H]1O` [4'N3-CTP, reference compound], on RSV RNP complex, the “inhibition of RSV RNP complex (in words)” value is listed as “dual RSV/HCV polymerase inhibitors”. The values for the IC50 at RSV RNP complex (first symbol of RSV / HCV) and at HCV polymerase (second symbol of RSV / HCV) were 0.1 to 10 µM and less than 0.1 µM, respectively. In addition, in series [3] (100 μM of each NTP), the “recognition as substrate by human mitochondrial RNA polymerase (in words)” value was “efficiently incorporated”. For the same compound, the “inhibition of HCV polymerase (in words)” value against HCV polymerase (Fig 5B) is “dual RSV/HCV polymerase inhibitors”. Further, the “substrate and chain termination profile” value in series [2] was “both substrates and chain terminators”.

Take `Nc1ccn([C@@H]2O[C@](CCl)(CI)[C@@H](O)[C@H]2F)c(=O)n1` [ALS-8112-I, 4’-Chloromethyl-2’,5’-dideoxy-2’-fluoro-5’-iodocytidine]: the “inhibition of luciferase activity in the RSV replicon (in words)” value in the series on RSV replicon is reported as “did not significantly inhibit”.

Consider `CC(C)C(=O)OC[C@@]1(CCl)O[C@@H](n2ccc(N)nc2=O)[C@H](F)[C@@H]1OC(=O)C(C)C` [ALS-8176, 4'-chloromethyl-2'-deoxy-3',5'-di-O-isobutyryl-2'-fluorocytidine], for which, in the series on RSV A2 (end of treatment), the “difference in RSV RNA titers, vehicle vs treated, BAL” value is listed as greater than 4 log10 copies/mL and the “difference in RSV RNA titers, vehicle vs treated, nasopharyngeal (NP) swab” value is reported as “about 3 log10 copies/mL”. The “RSV RNA titer in bronchoalveolar lavage (BAL) samples” value with RSV A2 (end of treatment (Day 5 post-infection), all four animals, LOD 50 copies/mL) was less than 50 copies/mL. Besides, the oral bioavailability entry in series [4] was “high”.

Regarding `C[C@@]1(F)[C@H](O)[C@@H](COP(=O)(O)OP(=O)(O)OP(=O)(O)O)O[C@H]1n1ccc(N)nc1=O` [mericitabine-TP, 2'F-2'Me-CTP, reference compound], the figures for the IC50 at RSV RNP complex (first symbol of RSV / HCV) and at HCV polymerase (second symbol of RSV / HCV) were greater than 10 µM and less than 0.1 µM, respectively. Further, in series [2] (Fig 5A), the “substrate and chain termination profile” value was “almost completely inactive”. In series [2], the “discrimination relative to natural CTP, WT RSV polymerase” value is listed as “greater than 5,000 fold”. The “level of incorporation by RSV polymerase” value in series [2] (at a concentration of 300 μM) is listed as “less than 20%”.

“cytidine triphosphate [CTP, reference compound]”: the IC50 on RSV RNP complex and at HCV polymerase was greater than 10 µM each time. Further, the results for the Km in series [1] and in series [2] were 0.056 ± 0.01 µM and 0.057 ± 0.009 µM, respectively.
